For 31 molecules, IC50 and GI50 results are on record in patent publication US11673898B2, “Substituted inhibitors of menin-MLL and methods of use” (Kura Oncology, Inc., priority 2016, dated 2023).

One experiment concerns the target T1, Menin MLL 4-43 (Homo sapiens, UniProt O00255).
T1 sequence (O00255 1-610): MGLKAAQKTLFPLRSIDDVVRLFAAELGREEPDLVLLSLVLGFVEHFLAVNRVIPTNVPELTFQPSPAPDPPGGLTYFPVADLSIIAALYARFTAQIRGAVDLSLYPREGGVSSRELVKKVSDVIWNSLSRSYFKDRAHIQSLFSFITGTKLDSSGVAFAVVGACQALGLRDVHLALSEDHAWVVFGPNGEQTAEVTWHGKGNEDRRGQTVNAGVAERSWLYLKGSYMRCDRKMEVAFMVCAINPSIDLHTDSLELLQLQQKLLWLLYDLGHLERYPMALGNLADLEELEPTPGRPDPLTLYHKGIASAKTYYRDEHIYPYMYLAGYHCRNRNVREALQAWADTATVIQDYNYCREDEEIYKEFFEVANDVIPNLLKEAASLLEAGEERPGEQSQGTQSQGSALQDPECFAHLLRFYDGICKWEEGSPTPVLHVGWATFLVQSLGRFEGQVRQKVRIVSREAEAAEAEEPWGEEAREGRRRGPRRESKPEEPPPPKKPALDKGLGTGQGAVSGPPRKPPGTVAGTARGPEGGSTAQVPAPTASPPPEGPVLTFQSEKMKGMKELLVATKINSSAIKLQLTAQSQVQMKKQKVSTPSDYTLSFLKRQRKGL
In words: Fluorescence polarization (FP) competition assay of the menin-MLL interaction. The class given is binding. To be noted: fluorescence polarization assay; read-out: Menin MLL 4-43 IC50. (In general: In fluorescence polarisation assays a small probe gives low polarisation when free and higher when bound to something large.)

In the next experiment the test system is MLL-AF9 BMC. Put plainly: Cell proliferation assay (CellTiter-Glo). The class given is cell-based. As for the experimental part: Example 9: Cell proliferation assay. The ability of a compound of the present disclosure to inhibit the growth of cells, such as human leukemia cell, acute myeloid leukemia cell, cells with an MLL fusion, control cells without an MLL fusion, VCaP, LNCaP, 22RV1, DU145, LNCaP-AR, MV4; 11, KOPN-8, ML-2, MOLM-13, RS4; 11, SEM, bone marrow cells (BMCs), MLL-AF9, MLL-AF4, MLL-ENL, MLL-CBP, MLL-GAS7, MLL-AF1p, MLL-AF6, HM-2, E2A-HLF, REH, U937, K562, KG-1, HL-60 and NB4 cells, is tested using a cell viability assay, such as the Promega CellTiter-Glo® Luminescent Cell Viability Assay (Promega Technical Bulletin, 2015, “CellTiter-Glo® Luminescent Cell Viability Assay”: 1-15, herein incorporated by reference in its entirety). Cells are plated at relevant concentrations, for example about 1×10^5-2×10^5 cells per well in a 96-well plate. A compound of the present disclosure is added at a concentration up to about 2 μM with eight, 2-fold serial dilutions for each compound. Cells are incubated at 37° C. for a period of time, for example, 72 hours, then cells in the control wells are counted. Media is changed to restore viable cell numbers to the original concentration, and compounds are re-supplied. Proliferation is measured about 72 hours later using Promega CellTiter-Glo® reagents, as per kit instructions.
In general terms: In ATP-based viability assays light output follows the ATP content of the culture.

Usually IC50 stands for the midpoint of a concentration-inhibition curve. Broadly, the GI50 is the concentration at which growth is held to half of that of the control. Consider `Cc1c(CN2CCC(Nc3ncnc4sc(CC(F)(F)F)cc34)CC2)ccc2c1cc(C#N)n2C[C@@H](C)N1CCN(S(C)(=O)=O)CC1` [Compound 9], for which the IC50 on Menin MLL 4-43 is above 1000 nM. The molecule further returned a GI50 with MLL-AF9 BMC of 250 to 1000 nM.

Turning to `Cc1c(CN2CCC(Nc3ncnc4sc(CC(F)(F)F)cc34)CC2)ccc2c1cc(C#N)n2C[C@H](C)N1CCN(S(C)(=O)=O)CC1` [Compound 10], the IC50 on Menin MLL 4-43 is below 50 nM. In the experiment with MLL-AF9 BMC, this molecule showed a GI50 of 10 to 50 nM.

For the molecule `Cc1c(CN2CCC(Nc3ncnc4sc(CC(F)(F)F)cc34)CC2)ccc2c1cc(C#N)n2CC(C)N1CCN(S(C)(=O)=O)C(C(N)=O)C1` (centres unmarked) [Compound 80], at Menin MLL 4-43, the IC50 is below 50 nM. The GI50 in the experiment with MLL-AF9 BMC was in the range of 10 to 50 nM.

Regarding `CNS(=O)(=O)N1CCN([C@@H](C)Cn2c(C#N)cc3c(C)c(CN4CCC(Nc5nc(N)nc6sc(CC(F)(F)F)cc56)CC4)ccc32)CC1` [Compound 132], the IC50 at Menin MLL 4-43 is below 50 nM. The same molecule returned a GI50 in the experiment with MLL-AF9 BMC below 10 nM.

Take `Cc1c(CN2CCC(Nc3nc(N)nc4sc(CC(F)(F)F)cc34)CC2)ccc2c1cc(C#N)n2C[C@H](C)N1CCN(S(C)(=O)=O)CC1` [Compound 135]: on Menin MLL 4-43, the half-inhibitory concentration (IC50) was below 50 nM. Besides, the GI50 in the experiment on MLL-AF9 BMC is below 10 nM.

With `Cc1nc(NC2CCN(Cc3ccc4c(cc(C#N)n4C[C@H](C)N4CCN(S(C)(=O)=O)CC4)c3C)CC2)c2cc(CC(F)(F)F)sc2n1` [Compound 138], the 50% inhibitory concentration (IC50) at Menin MLL 4-43 was below 50 nM. This molecule gave a GI50 with MLL-AF9 BMC of 10 to 50 nM.

As for `CNS(=O)(=O)N1CCN([C@@H](C)Cn2c(C#N)cc3c(C)c(CN4CCC(Nc5nc(C)nc6sc(CC(F)(F)F)cc56)CC4)ccc32)CC1` [Compound 139], at Menin MLL 4-43, the IC50 was below 50 nM. In the experiment on MLL-AF9 BMC, this molecule had a GI50 of 10 to 50 nM.

`CNc1nc(NC2CCN(Cc3ccc4c(cc(C#N)n4C[C@H](C)N4CCN(S(C)(=O)=O)CC4)c3C)CC2)c2cc(CC(F)(F)F)sc2n1` [Compound 151] gave a GI50 in the experiment on MLL-AF9 BMC below 10 nM.

Take `Cc1c(CN2CCC(Nc3ncnc4sc(CC(F)(F)F)cc34)CC2)ccc2c1cc(C#N)n2C[C@H](C)N1CCN(S(C)(=O)=O)[C@H](C(N)=O)C1` [Compound 163]: the IC50 on Menin MLL 4-43 was below 50 nM. This molecule displayed a GI50 in the experiment with MLL-AF9 BMC below 10 nM.

With `CCc1nc(NC2CCN(Cc3ccc4c(cc(C#N)n4C[C@H](C)N4CCN(S(C)(=O)=O)CC4)c3C)CC2)c2cc(CC(F)(F)F)sc2n1` [Compound 171], at Menin MLL 4-43, the IC50 fell in the range of 50 to 250 nM. This molecule gave a GI50 in the experiment on MLL-AF9 BMC of 10 to 50 nM.

`C[C@@H](Cn1c(C#N)cc2cc(CN3CCC(Nc4nc(N)nc5sc(CC(F)(F)F)cc45)CC3)c(O)cc21)N1CCN(S(C)(=O)=O)CC1` [Compound 172]: the IC50 on Menin MLL 4-43 was below 50 nM. In addition, in the experiment on MLL-AF9 BMC, the GI50 was below 10 nM.

As for `CCNc1nc(NC2CCN(Cc3ccc4c(cc(C#N)n4C[C@H](C)N4CCN(S(C)(=O)=O)CC4)c3C)CC2)c2cc(CC(F)(F)F)sc2n1` [Compound 174], on Menin MLL 4-43, the IC50 lay in the range of 50 to 250 nM. The molecule further returned a 50% growth inhibitory concentration (GI50) in the experiment with MLL-AF9 BMC of 10 to 50 nM.

Turning to `Cc1c(CN2CCC(Nc3nc(N)nc4sc(CC(F)(F)F)cc34)CC2)ccc2c1cc(C#N)n2C[C@H](C)N1CCN(CC(N)=O)CC1` [Compound 175], the IC50 on Menin MLL 4-43 was below 50 nM. For the same molecule, in the experiment with MLL-AF9 BMC, the GI50 was in the range of 10 to 50 nM.

Take `CNC(=O)CN1CCN([C@@H](C)Cn2c(C#N)cc3c(C)c(CN4CCC(Nc5nc(N)nc6sc(CC(F)(F)F)cc56)CC4)ccc32)CC1` [Compound 176]: the IC50 on Menin MLL 4-43 is below 50 nM. This molecule also gave a GI50 in the experiment on MLL-AF9 BMC of 10 to 50 nM.

For the molecule `CNS(=O)(=O)N1CCN([C@@H](C)Cn2c(C#N)cc3cc(CN4CCC(Nc5nc(N)nc6sc(CC(F)(F)F)cc56)CC4)c(O)cc32)CC1` [Compound 177], the IC50 at Menin MLL 4-43 is below 50 nM. The 50% growth inhibitory concentration (GI50) with MLL-AF9 BMC was below 10 nM.

As for `Cc1c(CN2CCC(Nc3nc(N)nc4sc(CC(F)(F)F)cc34)CC2)ccc2c1cc(C#N)n2C[C@H](C)N1CCN(CC(=O)N(C)C)CC1` [Compound 181], at Menin MLL 4-43, the IC50 was below 50 nM. For the same molecule, in the experiment on MLL-AF9 BMC, the GI50 was in the range of 10 to 50 nM.

As to `COc1nc(NC2CCN(Cc3ccc4c(cc(C#N)n4C[C@H](C)N4CCN(S(C)(=O)=O)CC4)c3C)CC2)c2cc(CC(F)(F)F)sc2n1` [Compound 183], at Menin MLL 4-43, the IC50 was below 50 nM. Moreover, the GI50 in the experiment with MLL-AF9 BMC was below 10 nM.

For `CNc1nc(NC2CCN(Cc3ccc4c(cc(C#N)n4C[C@H](C)N4CCC(C)(C#N)CC4)c3C)CC2)c2cc(CC(F)(F)F)sc2n1` [Compound 199], the IC50 on Menin MLL 4-43 was 50 to 250 nM. The same molecule gave a GI50 in the experiment with MLL-AF9 BMC below 10 nM.

Take `CNc1nc(NC2CCN(Cc3ccc4c(cc(C#N)n4C[C@H](C)N4CCS(=O)(=O)CC4)c3C)CC2)c2cc(CC(F)(F)F)sc2n1` [Compound 203]: the IC50 on Menin MLL 4-43 is below 50 nM. Also, in the experiment on MLL-AF9 BMC, the GI50 was below 10 nM.

`CNS(=O)(=O)N1CCN([C@@H](C)Cn2c(C#N)cc3c(C)c(CN4CCC(Nc5nc(OC)nc6sc(CC(F)(F)F)cc56)CC4)ccc32)CC1` [Compound 205]: the IC50 at Menin MLL 4-43 was below 50 nM. The GI50 with MLL-AF9 BMC was below 10 nM.

On to `CNc1nc(NC2CCN(Cc3ccc4c(cc(C#N)n4C[C@H](C)N4CCC(C)(O)CC4)c3C)CC2)c2cc(CC(F)(F)F)sc2n1` [Compound 207], for which the half-maximal inhibitory concentration (IC50) at Menin MLL 4-43 was below 50 nM. The same molecule gave a GI50 with MLL-AF9 BMC below 10 nM.

As to `CNS(=O)(=O)C1CCN([C@@H](C)Cn2c(C#N)cc3c(C)c(CN4CCC(Nc5nc(OC)nc6sc(CC(F)(F)F)cc56)CC4)ccc32)CC1` [Compound 214], the IC50 on Menin MLL 4-43 was below 50 nM. In the experiment with MLL-AF9 BMC, this molecule came in with a GI50 below 10 nM.

Take `CNC(=O)C1CN([C@@H](C)Cn2c(C#N)cc3c(C)c(CN4CCC(Nc5nc(NC)nc6sc(CC(F)(F)F)cc56)CC4)ccc32)CCO1` (some centres unmarked) [Compound 217]: the IC50 on Menin MLL 4-43 was below 50 nM. Moreover, the GI50 in the experiment on MLL-AF9 BMC was in the range of 10 to 50 nM.

For the molecule `C/C=C(\C#N)C(=O)Nc1ccc(CCn2c(C#N)cc3c(C)c(CN4CCC(Nc5ncnc6sc(CC(F)(F)F)cc56)CC4)ccc32)cc1` [Compound 1013], on Menin MLL 4-43, the IC50 is 50 to 250 nM.

As for `CNc1nc(NC2CCN(Cc3ccc4c(cc(C#N)n4CCN4CCC(S(C)(=O)=O)CC4)c3C)CC2)c2cc(CC(F)(F)F)sc2n1` [Compound 1020], at Menin MLL 4-43, the IC50 was below 50 nM.

For the molecule `Cc1nc(NC2CCN(Cc3ccc4c(cc(C#N)n4CCN4CCC(S(C)(=O)=O)CC4)c3C)CC2)c2cc(CC(F)(F)F)sc2n1` [Compound 1021], the IC50 on Menin MLL 4-43 was below 50 nM.

Consider `CNc1nc(NC2CCN(Cc3ccc4c(cc(C#N)n4CCN4CCN(S(C)(=O)=O)CC4)c3C)CC2)c2cc(CC(F)(F)F)sc2n1` [Compound 1022], for which the IC50 at Menin MLL 4-43 is below 50 nM.

Turning to `Cc1nc(NC2CCN(Cc3ccc4c(cc(C#N)n4CCN4CCN(S(C)(=O)=O)CC4)c3C)CC2)c2cc(CC(F)(F)F)sc2n1` [Compound 1023], the IC50 at Menin MLL 4-43 is 50 to 250 nM.

Take `CNc1nc(NC2CCN(Cc3ccc4c(cc(C#N)n4CCN4CCN(C)C(=O)C4)c3C)CC2)c2cc(CC(F)(F)F)sc2n1` [Compound 1024]: the 50% inhibitory concentration (IC50) on Menin MLL 4-43 was below 50 nM.

Consider `CNc1nc(NC2CCN(Cc3ccc4c(cc(C#N)n4CCN4CCNC(=O)C4)c3C)CC2)c2cc(CC(F)(F)F)sc2n1` [Compound 1025], for which, at Menin MLL 4-43, the half-inhibitory concentration (IC50) was below 50 nM.

On to `Cc1c(CN2CCC(Nc3ncnc4sc(CC(F)(F)F)cc34)CC2)ccc2c1cc(C#N)n2CCNC(=O)COCCOCCNC(=O)OC(C)(C)C` [Compound 1027], for which the IC50 at Menin MLL 4-43 is below 50 nM.
